The values that follow come from ChEMBL document CHEMBL5500336, “Recent advances in developing modified C14 side chain pleuromutilins as novel antibacterial agents” (Eur J Med Chem, 2024).

Structures are written as SMILES. In brackets after ≈: the same amount, converted by molar mass.

The test system of data set [1] is Staphylococcus aureus. Put plainly: Antibacterial activity against […] Staphylococcus aureus ATCC 25923 assessed as reduction in bacterial growth measured after 24 hrs by MH broth based assay. Format: functional.
Data set [2] relates to Staphylococcus epidermidis. Put plainly: Antibacterial activity against […] Staphylococcus epidermidis ATCC 51625 assessed as inhibition of bacterial growth measured after 24 hrs by MH broth based assay. The data set is classed as functional.
Data set [3] has as its system Staphylococcus aureus. Put plainly: Antibacterial activity against […] Staphylococcus aureus BNCC 337371 assessed as bacterial growth inhibition incubated for 18 to 24 hrs by NCCLS based assay. Format: functional. As to conditions: time 18-24 hrs.
For data set [4], the system named is Staphylococcus aureus. The data set can be described thus: Antibacterial activity against Methicillin-resistant Staphylococcus aureus assessed as bacterial growth inhibition. Format: functional.
Data set [5] has as its system Staphylococcus aureus. Put plainly: Antibacterial activity against Methicillin-sensitive Staphylococcus aureus assessed as bacterial growth inhibition. Format: functional.
Data set [6] relates to Staphylococcus epidermidis. The data set can be described thus: Antibacterial activity against […] Staphylococcus epidermidis ATCC 35984 after 16 to 18 hrs by CLSI protocol based broth microdilution assay. As to conditions: time 16-18 hrs. The data set is classed as functional.
For data set [7], the system named is Staphylococcus epidermidis. The data set can be described thus: Antibacterial activity against methicillin-sensitive Staphylococcus epidermidis ATCC 12228 assessed as reduction in bacterial growth incubated for 18 hrs by agar dilution method. The data set is classed as functional. (In general: In agar dilution, organisms are placed on agar that contains the substance at set levels.)

Data set [8] relates to Staphylococcus aureus. The data set can be described thus: Antibacterial activity against […] Staphylococcus aureus ATCC 43300 assessed as reduction in bacterial growth by CLSI protocol based broth microdilution method. The data set is classed as functional. (In broth dilution the organism is exposed to a series of concentrations in liquid medium.)
The subject of data set [9] is Staphylococcus aureus. Put plainly: Antibacterial activity against […] Staphylococcus aureus ATCC 43300 assessed as inhibition of bacterial growth. Format: functional.
Data set [10] concerns Staphylococcus aureus. The data set can be described thus: Antibacterial activity against […] Staphylococcus aureus ATCC 43300 assessed as inhibition of bacterial growth measured after 24 hrs by MH broth based assay. The data set is classed as functional.
Data set [11] concerns Staphylococcus aureus. The data set can be described thus: Antibacterial activity against methicillin-sensitive Staphylococcus aureus assessed as reduction in microbial growth. Format: functional.
Data set [12] is described as follows: Cytotoxicity against mouse RAW264.7 cells assessed as reduction in cell viability incubated for 48 hrs by MTT assay. The data set is classed as toxicity, cell-based. In general terms: Tetrazolium dyes change colour on reduction, which living cells bring about.
The subject of data set [13] is Staphylococcus aureus. The data set can be described thus: Antimicrobial activity against methicillin-Staphylococcus aureus 29213 assessed as inhibition of microbial growth incubated for 24 hrs by broth-microdilution assay. Format: functional.
Data set [14] concerns Staphylococcus aureus. The data set can be described thus: Antimicrobial activity against […] Staphylococcus aureus ATCC 33591 assessed as inhibition of microbial growth measured after 20 to 24 hrs incubation by CLSI method. Format: functional. As to conditions: time 20-24 hrs.
In data set [15] the test system is Staphylococcus aureus. Put plainly: Antimicrobial activity against […] Staphylococcus aureus ATCC 43300 assessed as inhibition of microbial growth measured after 20 to 24 hrs incubation by CLSI method. The data set is classed as functional. The note with it: time 20-24 hrs.
In the next data set the test system is Escherichia coli. Put plainly: Antibacterial activity against Escherichia coli ATCC 25922 assessed as bacterial growth inhibition measured after 18 hrs by CLSI based method. Format: functional.
The test system of the next data set is Streptococcus pneumoniae. Put plainly: Antibacterial activity against Streptococcus pneumoniae B1 assessed as reduction in bacterial growth. Format: functional.
The subject of data set [16] is Staphylococcus aureus. The data set can be described thus: Antibacterial activity against […] Staphylococcus aureus ATCC 33592 assessed as bacterial growth inhibition. The data set is classed as functional.
Data set [17] has as its system Staphylococcus aureus. Put plainly: Antibacterial activity against […] Staphylococcus aureus ATCC 43300 assessed as reduction in microbial growth after 16 hrs by broth microdilution method. The data set is classed as functional.

Consider `C=C[C@]1(C)C[C@@H](OC(=O)CSc2nc(C)c(C(=O)OCC)c(C)n2)[C@]2(C)[C@H](C)CC[C@]3(CCC(=O)[C@H]32)[C@@H](C)[C@@H]1O`, for which the figures for the MIC (with Staphylococcus aureus [1]; in data set [2]; with Staphylococcus aureus [3]) were at most 0.016 µg/mL, 0.015 µg/mL (≈ 0.0262 µM) and 0.015 µg/mL (≈ 0.0262 µM), respectively.

Regarding `C=C[C@]1(C)C[C@@H](OC(=O)CSCc2csc(NC(=O)CN3CCC[C@@H]3CO)n2)[C@]2(C)[C@H](C)CC[C@]3(CCC(=O)[C@H]32)[C@@H](C)[C@@H]1O`, the minimum inhibitory concentration (MIC) (in the data set on Staphylococcus aureus [4]; with Staphylococcus aureus [5]; in data set [6]; in data set [7]; in the data set on Staphylococcus aureus [8]) was 0.063 µg/mL (≈ 0.0972 µM) throughout.

As for `C=C[C@]1(C)C[C@@H](OC(=O)CSc2ccc(NC(=O)c3ccco3)cc2)[C@]2(C)[C@H](C)CC[C@]3(CCC(=O)[C@H]32)[C@@H](C)[C@@H]1O`, the MIC (in general, the lowest concentration found to suppress growth) in the data set with Staphylococcus aureus [9] was found to be 0.015 µg/mL (≈ 0.0259 µM). Besides, in the data set with Staphylococcus aureus [10], the MBC (in general, the smallest concentration meeting the test's criterion for killing) stood at 0.03 µg/mL (≈ 0.0517 µM).

As to `C=C[C@]1(C)C[C@@H](OC(=O)CSCc2csc(N)n2)[C@]2(C)[C@H](C)CC[C@]3(CCC(=O)[C@H]32)[C@@H](C)[C@@H]1O`, the MIC (in the data set with Staphylococcus aureus [4]; in the data set on Staphylococcus aureus [5]; in data set [6]; in data set [7]) was 0.063 µg/mL (≈ 0.124 µM) each time.

Turning to `C=C[C@]1(C)C[C@@H](OC(=O)CSc2cccc(NC(=O)Nc3ccc(C#N)cc3)c2)[C@]2(C)[C@H](C)CC[C@]3(CCC(=O)[C@H]32)[C@@H](C)[C@@H]1O`, the minimum inhibitory concentration (MIC) in the data set on Staphylococcus aureus [11] was 0.06 µg/mL.

Take `C=C[C@]1(C)C[C@@H](OC(=O)CSc2nc(C)c(C(C)=O)c(C)n2)[C@]2(C)[C@H](C)CC[C@]3(CCC(=O)[C@H]32)[C@@H](C)[C@@H]1O`: the figures for the MIC (in the data set with Staphylococcus aureus [1]; in [2]; in the data set with Staphylococcus aureus [3]) were 0.016 µg/mL (≈ 0.0295 µM), 0.03 µg/mL (≈ 0.0553 µM) and 0.015 µg/mL (≈ 0.0276 µM), respectively.

As to `C=C[C@]1(C)C[C@@H](OC(=O)CSc2nnc(-c3cccs3)o2)[C@]2(C)[C@H](C)CC[C@]3(CCC(=O)[C@H]32)[C@@H](C)[C@@H]1O`, the IC50 (commonly the midpoint of a concentration-inhibition curve) at 48 h in [12] came to 17.9 µg/mL (≈ 32.8 µM). Moreover, the minimal inhibitory concentration (MIC) in the data set with Staphylococcus aureus [13] worked out at 0.125 µg/mL.

`C=C[C@]1(C)C[C@@H](OC(=O)CSc2nc(C)c(C(=O)OC)c(C)n2)[C@]2(C)[C@H](C)CC[C@]3(CCC(=O)[C@H]32)[C@@H](C)[C@@H]1O`: the MIC in the data set on Staphylococcus aureus [1] was 0.016 µg/mL (≈ 0.0286 µM); in [2], 0.03 µg/mL (≈ 0.0537 µM); in the data set with Staphylococcus aureus [3], 0.015 µg/mL (≈ 0.0268 µM).

Consider `C=C[C@]1(C)C[C@@H](OC(=O)CN2CCN(c3ccc(C4CC(N)=NC=C4c4ccccc4[N+](=O)[O-])cc3)CC2)[C@]2(C)[C@H](C)CC[C@]3(CCC(=O)[C@H]32)[C@@H](C)[C@@H]1O` (some centres not stated), for which the MIC in the data set on Staphylococcus aureus [14] came out at 1 µg/mL; in the data set on Staphylococcus aureus [15], 1 µg/mL; in the data set with Escherichia coli, 8 µg/mL (≈ 10.8 µM).

For the compound `C=C[C@]1(C)C[C@@H](OC(=O)CSC2=NC(C)=C(C(C)=O)C(C)N2)[C@]2(C)[C@H](C)CC[C@]3(CCC(=O)[C@H]32)[C@@H](C)[C@@H]1O` (some centres not stated), the results for the MIC (in the data set on Staphylococcus aureus [1]; in [2]; in the data set with Staphylococcus aureus [3]) were 0.25 µg/mL (≈ 0.459 µM), 0.25 µg/mL (≈ 0.459 µM) and 0.125 µg/mL (≈ 0.229 µM), respectively.

Turning to `C=C[C@]1(C)C[C@@H](OC(=O)CSc2ccccc2N)[C@]2(C)[C@H](C)CC[C@]3(CCC(=O)[C@H]32)[C@@H](C)[C@@H]1O`, the MIC turned out to be 0.016 µg/mL (≈ 0.0329 µM) with Streptococcus pneumoniae, 0.5 µg/mL (≈ 1.03 µM) with Staphylococcus aureus [16] and 0.016 µg/mL in the data set with Staphylococcus aureus [17].

With `C=C[C@]1(C)C[C@@H](OC(=O)CSc2ccc(NC(=O)c3cccc(F)c3)cc2)[C@]2(C)[C@H](C)CC[C@]3(CCC(=O)[C@H]32)[C@@H](C)[C@@H]1O`, the MIC with Staphylococcus aureus [9] was 0.03 µg/mL (≈ 0.0494 µM). Moreover, the minimum bactericidal concentration (MBC) with Staphylococcus aureus [10] came to 0.03 µg/mL (≈ 0.0494 µM).

As for `C=C[C@]1(C)C[C@@H](OC(=O)CSc2ccccc2NC(=O)c2cccc(F)c2)[C@]2(C)[C@H](C)CC[C@]3(CCC(=O)[C@H]32)[C@@H](C)[C@@H]1O`, the MIC in the data set with Staphylococcus aureus [17] is 0.125 µg/mL.

Regarding `C=C[C@]1(C)C[C@@H](OC(=O)CSc2ccc(NC(=O)c3ccccc3F)cc2)[C@]2(C)[C@H](C)CC[C@]3(CCC(=O)[C@H]32)[C@@H](C)[C@@H]1O`, the MIC in the data set on Staphylococcus aureus [9] turned out to be 0.03 µg/mL (≈ 0.0494 µM). Moreover, the MBC with Staphylococcus aureus [10] was determined as 0.062 µg/mL (≈ 0.102 µM).
